Results on 25 compounds are retold here after US7250157B2, “Dermatological compositions and methods” (Applied Genetics Incorporated Dermatics, priority 1996, dated 2007).

Data set [1] has as its system Cloudman S91 mouse melanoma cell line. The data set can be described thus: Melanin content of S91 cells after treatment with test compound. In kind it is cell-based. The conditions noted are these: for melanogenesis in S91 cells (in words): PKC inhibitors. The method, then: The Cloudman S91 mouse melanoma cell line was obtained from American Type Culture Collection (ATCC). […] For testing propylene glycol and analogues for induction of melanogenesis, S91 cells were plated at 10^5 cells/35 mm dish in 10% calf serum. […] Cells were cultured for 6 days at 37° C. in 5% CO2 in a humidified incubator. Following this treatment period, cells were examined microscopically and the portion of dedifferentiated and differentiated cells was estimated.
Following this microscopic examination, cells were detached from dishes by trypsin. The time required for detachment by trypsin was recorded as an additional indicator of the phenotypic effects of test compounds. For each treatment, a subsample of cells was counted to determine the effects of treatment compounds on cellular proliferation. The remainder of cells were used for determination of melanin content. […] Absorbance of standards and samples was measured at 475 nm. Melanin was expressed as pg melanin/cell.

The test system of data set [2] is Tyrosinase in normal human epidermal melanocytes (NHEM). The data set can be described thus: Tyrosinase in NHEM (in situ, cellular, extracellular particulate, media). The format is cell-based. The method, then:
Tyrosinase was measured in normal human epidermal melanocytes (NHEM) using procedures identical to those described for S91 cells (Example 6), […], 1600×g, or 17,300×g for analysis of tyrosinase activity in the extracellular exported melanosomal particulate fraction, and in the resultant supernatant media fraction. In some cases (Table 11), tyrosinase was also measured by an in situ assay wherein radiolabelled tyrosine was added directly to freshly replaced media of NHEM for a period of 24 hrs following a 5 day treatment period (Abdel-Malek, et al., 1992, J. Cell. Physiol. 150:416-425). […] Both 5 mM 5-NBene-2,2-DM and 25 mM 3,3-M-1,2-BD induced more tyrosinase in each of these assays and fractions than did 1,2-PG. IBMX (3-isobutyl-1-methyl-xanthine) provided as a positive control, induced as much tyrosinase as 5 mM 5-NBene-2,2-DM in the in situ assay, but less in cellular, extracellular particulate and media fractions (Table 11).

In data set [3] the test system is tyrosinase activity in S91 mouse melanoma cells. The data set can be described thus: Induction of tyrosinase activity in S91 cells. The conditions noted are these: for relative melanogenic potency in S91 cells (in words): Table 19 data.
Method: Compounds were examined for their ability to induce tyrosinase activity in S91 mouse melanoma cells. […] Following treatments, cells were trypsinized, counted by Coulter, pelleted by centrifugation at 1000×g, and analyzed for tyrosinase activity using modifications of previously described procedures (Pomerantz, S. H., 1966, J. Biol. Chem. 241:161-168; Jara, et al., 1988, Pigment Cell Res. 1: 332-339.). Briefly, cell pellets were solubilized by sonicating for 5 seconds in 600 ul 50 mM phosphate buffer pH 6.8 containing 0.5% Triton-X100, followed by vortexing, incubation on ice for 30 min, and then revortexing. From this, 200 ul aliquots were combined with 200 ul of reaction mixture containing either 75 uM tyrosine, 75 uM L-Dopa, and 2 uCi L-[3,5-^3H]Tyrosine in 50 mM NaPO4 pH 6.8 (L-Dopa+), or, 75 uM tyrosine, and 2 uCi L-[3,5-^3H]Tyrosine in 50 mM NaPO4 pH 6.8 (L-Dopa−) and incubated 1 hr at 37° C. Reactions were stopped by addition of 400 ul 10% activated charcoal in 0.1N HCl and incubation on ice for 15 min. This mixture was centrifuged at 17,300×g for 5 min, and 400 ul supernatant was then filtered through a 0.22 uM GV Durapore centifugal filter unit (Millipore) by centrifuging at 17,300×g for 5 min. Filtrate was added to 4 ml Fisher Plus scintillation fluid and counted on a Hewlett Packard scintillation counter. Tyrosinase activity was calculated as dpm/hr/ug protein and dpm/hr/10^3 cells. Each sample was analyzed with and without L-Dopa, a necessary cofactor for tyrosinase (Pomerantz, S. H., 1966, J. Biol. Chem. 241:161-168; McLane, et al., 1987, Biochem. Biophys. Res. Commun. 145:719-725). All reported tyrosinase values are exclusive of counts that occurred in buffer blanks and L-dopa negative aliquots. Protein was determined on aliquots of cell lysate, extracellular particulate lysate or media by the Bradford Coomassie Blue method (Bradford, 1967, Anal. Biochem. 72:248-254) using Bio-Rad Protein Assay Kit I.
The mark [4] stands for this setting: range of concentrations up to a toxic dose.
The mark [5] stands for this setting: 5 day treatment, concentrations as E130.
[6] abbreviates: pair of replicates, concentrations as E130.
Setting [7] is: 300 mM PG-1,2, 25 mM 3,3-M-1,2-BD, 50 mM 1,2-cs-CPD, 5 mM 5-NBene-2,2-DM, 0.5 mM 2,3-Pyd, 0.1 mM IBMX, mean ±SE.

Where “and” joins values, the source holds several entries; their conditions need not be identical. Equal entries are not always repeated. Where two headings read alike, the source gives them in different places.

For `O[C@@H]1CCC[C@H]1O` (relative stereo) [1,2-trans-Cyclopentanediol, 1,2-trans-cyclopentanediol], the “Concentration Required for ≧2-fold Melanin Induction in S91 Cells” value in data set [1] worked out at 50000 µM.
Regarding `CCCCCCCC/C=C\CCCCCCCC(=O)O` [oleic acid], the “melanogenesis in S91 cells (≧2-fold increase = significant)” value in data set [1] (setting [4]) is listed as “did not induce significant (≧2-fold increase) melanogenesis”.
As to 1-propanol, the “melanogenesis in S91 cells (≧2-fold increase = significant)” value in data set [1] (setting [4]) is “did not induce significant (≧2-fold increase) melanogenesis”.
Take `CCCC[N+](CCCC)(CCCC)CCCC.[Cl-]` [tetrabutylammonium chloride]: the “melanogenesis in S91 cells (≧2-fold increase = significant)” value in data set [1] is “did not induce significant (≧2-fold increase) melanogenesis”.
As for `O=C(O)C(O)C(O)C(=O)O` (stereo not drawn) [tartaric acid], the “melanogenesis in S91 cells (≧2-fold increase = significant)” value in data set [1] (setting [4]) is reported as “did not induce significant (≧2-fold increase) melanogenesis”.
Regarding `OC1OCCOC1O` (stereo not drawn) [1,4-Dioxane-2,3-Diol, 1,4-dioxane-2,3-diol], the “Concentration Required for ≧2-fold Melanin Induction in S91 Cells” value in data set [1] was determined as 500 µM.
As for `CC(C)Cn1c(=O)n(C)c(=O)c2[nH]cnc21` [IBMX, 3-isobutyl-1-methylxanthine, reference compound], in data set [2] (5 day treatment, 300 mM 1,2-PG, 25 mM 3,3-M-1,2-BD, 5 mM 5-NBene-2,2-DM, 0.1 mM IBMX), the “Tyrosinase In Situ” value is 25.3 dpm/hr/10^3 Cells and 26.1 dpm/hr/10^3 Cells. For the same compound, in data set [2] (setting [5]), the “Tyrosinase 200 g Partic” value was 2189 dpm/hr/10^3 Cells and 1834 dpm/hr/10^3 Cells; the “Tyrosinase Cellular” value was 10910 dpm/hr/10^3 Cells and 11737 dpm/hr/10^3 Cells. Also, in data set [2] (Post 200 X g, 5 day treatment, concentrations as E130), the “Tyrosinase 17300 g Partic” value is 220 dpm/hr/10^3 Cells and 260 dpm/hr/10^3 Cells. Moreover, the “Tyrosinase Media” value in data set [2] (Post 17300 X g, 5 day treatment, concentrations as E130) is 2698 dpm/hr/10^3 Cells and 2935 dpm/hr/10^3 Cells. In data set [2] (setting [6]), the “Tyrosinase 200 g Partic, relative to controls (in parentheses)” value is given as “(5.86X)”; the “Tyrosinase 17300 g Partic, relative to controls (in parentheses)” value is given as “(2.10X)”; the “Tyrosinase Cellular, relative to controls (in parentheses)” value was “(1.11X)”; the “Tyrosinase In Situ, relative to controls (in parentheses)” value is given as “(1.62X)”. In addition, the “Tyrosinase Media, relative to controls (in parentheses)” value in data set [2] (setting [6]) is given as “(1.81X)”. For the same compound, in data set [3] (setting [7]), the “Tyrosinase dpm/hr 10^3 Cells” value came to 765 ± 53 dpm/hr/10^3 Cells and the “Tyrosinase dpm/hr ug Protein” value turned out to be 2161 ± 41 dpm/hr/ug Protein.
`CC(O)(CO)c1ccccc1` (stereo not drawn) [2-phenyl-1,2-propanediol]: the “melanogenesis in S91 cells (≧2-fold increase = significant)” value in data set [1] (setting [4]) is given as “did not induce significant (≧2-fold increase) melanogenesis”.
As to `OCC1CC2CCC1C2` (stereo not drawn) [2-NBaneM, 2-Norbornanemethanol], the “Tyrosinase Cellular” value in data set [2] (Black-Neonatal-NHEM, 1 mM) is 10863 dpm/hr/10^3 cells; in data set [2] (Black-Neonatal-NHEM, 5 mM), 17397 dpm/hr/10^3 cells; in data set [2] (White-Adult-NHEM, 1 mM), 15257 dpm/hr/10^3 cells; in data set [2] (White-Adult-NHEM, 5 mM) it was 16077 dpm/hr/10^3 cells. In addition, the “Tyrosinase Cellular relative to Control” value in data set [2] (Black-Neonatal-NHEM, 1 mM) is reported as 1.10 X; in data set [2] (Black-Neonatal-NHEM, 5 mM) it was 1.77 X; in data set [2] (White-Adult-NHEM, 1 mM) it was 1.09 X; in data set [2] (White-Adult-NHEM, 5 mM), 1.15 X. Moreover, the “Tyrosinase In Situ” value in data set [2] (Black-Neonatal-NHEM, 1 mM) stood at 12.1 dpm/hr/10^3 cells; in data set [2] (Black-Neonatal-NHEM, 5 mM) it was 12.8 dpm/hr/10^3 cells; in data set [2] (White-Adult-NHEM, 1 mM) it was 7.05 dpm/hr/10^3 cells; in data set [2] (White-Adult-NHEM, 5 mM), 6.18 dpm/hr/10^3 cells. For the same compound, the “Tyrosinase In Situ relative to Control” value in data set [2] (Black-Neonatal-NHEM, 1 mM) is 0.97 X; in data set [2] (Black-Neonatal-NHEM, 5 mM), 1.02 X; in data set [2] (White-Adult-NHEM, 1 mM), 1.27 X; in data set [2] (White-Adult-NHEM, 5 mM), 1.11 X. For the same compound, the “Tyrosinase Media relative to Control” value turned out to be 1.68 X in data set [2] (Black-Neonatal-NHEM, 1 mM); 3.36 X in data set [2] (Black-Neonatal-NHEM, 5 mM); 1.11 X in data set [2] (White-Adult-NHEM, 1 mM); 1.33 X in data set [2] (White-Adult-NHEM, 5 mM). Further, the “Tyrosinase Media” value is recorded as 18.7 dpm/hr/10^3 cells in data set [2] (Black-Neonatal-NHEM, 1 mM, media from 1 day treatment period); 37.3 dpm/hr/10^3 cells in data set [2] (Black-Neonatal-NHEM, 5 mM, media from 1 day treatment period); 29.2 dpm/hr/10^3 cells in data set [2] (White-Adult-NHEM, 1 mM, media from 1 day treatment period); 48.1 dpm/hr/10^3 cells in data set [2] (White-Adult-NHEM, 5 mM, media from 1 day treatment period). Also, in data set [3], the “induction of tyrosinase in S91 cells compared with 5-NBene-2,2-DM (FIG. 2)” value is reported as “Lesser induction”.
`O=CC[C@H](O)[C@H](O)CO` [2-deoxy-D-ribose]: the “melanogenesis in S91 cells (≧2-fold increase = significant)” value in data set [1] (setting [4]) is on record as “did not induce significant (≧2-fold increase) melanogenesis”.
The same measure, in the same setting: the entry for `CNC[C@H](O)[C@@H](O)[C@H](O)[C@H](O)CO` [N-methyl-D-glucamine] is “did not induce significant (≧2-fold increase) melanogenesis”; for `O=C1O[C@H]([C@@H](O)CO)C(O)=C1O` [ascorbic acid] it is “did not induce significant (≧2-fold increase) melanogenesis”.
Turning to `O=c1[nH]cc(CO)c(=O)[nH]1` [hydroxymethyl uracil], the “melanogenesis in S91 cells (≧2-fold increase = significant)” value in data set [1] (setting [4]) is given as “did not induce significant (≧2-fold increase) melanogenesis”.
For the compound `OC1CCCC(O)C1` (stereo not drawn) [1,3-cyclohexanediol], the “melanogenesis in S91 cells (≧2-fold increase = significant)” value in data set [1] (setting [4]) was “did not induce significant (≧2-fold increase) melanogenesis”.
In the case of `CCCCCCCCCCCCC/C=C/[C@@H](O)[C@@H](N)CO` [D-sphingosine, reference compound], in data set [1], the “effect on melanogenesis induced by propylene glycol in S91 cells” value is given as “enhanced melanogenesis induced by propylene glycol” and the “melanogenesis in S91 cells (in words)” value is given as “induced melanogenesis”.
Consider `CC1CNCCN1S(=O)(=O)c1cccc2cnccc12` (stereo not drawn) [H7, 1-[5-isoquinolinyl-sulfonyl]-2-methyl-piperazine, reference compound], for which, in data set [1], the “effect on melanogenesis induced by propylene glycol in S91 cells” value is reported as “enhanced melanogenesis induced by propylene glycol” and the “melanogenesis in S91 cells (in words)” value is recorded as “induced melanogenesis”.
`O=C1C(Nc2ccccc2)=CC(=O)c2ncccc21` [LY83583, 6-anilino-5,8-quinolinequinone, reference compound]: in data set [3], the “effect on induction of melanogenesis by 5-NBene-2,2-DM in S91 cells (in words)” value is listed as “reduced induction of melanogenesis by 5-NBene-2,2-DM”.
As to `CC1=CC[C@@H](C(C)(C)O)CC1` [(−)-a-terpineol, (S)-p-menth-1-en-8-ol], the “Fold Induction of Tyrosinase Relative to Controls” value came out at 6.2X in data set [3] (0.5 mM (Table 19)), 7.1X in data set [3] (1 mM (Table 19)) and 4.7X in data set [3] (2.5 mM (Table 19)).
Turning to `CC1(C)N([O])C(c2ccccc2)=[N+]([O-])C1(C)C` [PTIO, 2-phenyl-4,4,5,5-tetramethylimidazoline-1-oxyl-3-oxide, reference compound], the “effect on induction of melanogenesis by 5-NBene-2,2-DM in S91 cells (in words)” value in data set [3] is given as “reduced induction of melanogenesis by 5-NBene-2,2-DM”.
In the case of `CC1(C)C2CCC(CO)[C@]1(O)C2` (stereo in doubt) [(1R)-(−)-trans-pinane-1,10-diol], the entries for the “Fold Induction of Tyrosinase Relative to Controls” value in data set [3] (1 mM (Table 19)), in data set [3] (2.5 mM (Table 19)) and in data set [3] (5 mM (Table 19)) were 14.3X, 96.0X and 36.8X, respectively. Moreover, the “relative melanogenic potency in S91 cells (in words)” value in data set [3] is recorded as “almost-identical to that of (1R, 2R, 3S, 5R)-(−)-pinanediol”.
With `CCCCCCCCCCCCN1CCCCCC1=O` [Azone®], in data set [1] (setting [4]), the “melanogenesis in S91 cells (≧2-fold increase = significant)” value is reported as “did not induce significant (≧2-fold increase) melanogenesis”.
With `CC1(C)[C@@H]2CC(=O)[C@@](C)(O)[C@H]1C2` [(1S,2S,5S,)-2-hydroxy-3-pinanone], the “Fold Induction of Tyrosinase Relative to Controls” value in data set [3] (1 mM (Table 19)) is reported as 4.1X; in data set [3] (2.5 mM (Table 19)), 37.1X; in data set [3] (5 mM (Table 19)), 94.9X. Besides, the “relative melanogenic potency in S91 cells (in words)” value in data set [3] is reported as “about half as potent as (1R, 2R, 3S, 5R)-(−)-pinanediol”.
Take `CC(C)O` [2-propanol]: in data set [1] (setting [4]), the “melanogenesis in S91 cells (≧2-fold increase = significant)” value is given as “did not induce significant (≧2-fold increase) melanogenesis”.
Take `C[C@]12CC[C@@H]3c4ccc(O)cc4CC[C@H]3[C@@H]1CC[C@@H]2O` [β-Estradiol, β-estradiol, reference compound]: the “Concentration Required for ≧2-fold Melanin Induction in S91 Cells” value in data set [1] stood at 500 µM.
Take `CC1(C)C2CCC1(C)C(O)C2O` (stereo not drawn) [2,3-trans-bornanediol]: the “Fold Induction of Tyrosinase Relative to Controls” value in data set [3] (0.5 mM (Table 19)) is on record as 4.7X; in data set [3] (1 mM (Table 19)) it was 12.8X; in data set [3] (2.5 mM (Table 19)), 22.1X.
